Assay results reported in US6337192B1, “MMSC1-an MMAC1 interacting protein” (Myraid Genetics, Inc., priority 1998, dated 2002).
* marks the point of attachment. Biotin = O=C1N[C@H]2[C@H](CS[C@H]2CCCCC(=O)*)N1

Experiments:
[1] = target: T1, MMSc1 PDZ 9 (Homo sapiens, UniProt Q8NI35); assay: Peptide binding ELISA assay (PDZ Binding Assay), MMSC1 PDZ domain 9; details: immobilized GST fusion of MMSc1 PDZ 9; biotinylated peptide pre-bound to streptavidin-alkaline phosphatase; colorimetric phosphatase assay
T1 construct: made in house; host or cells: E. coli
T1 sequence (Q8NI35 1533-1615 limits assumed): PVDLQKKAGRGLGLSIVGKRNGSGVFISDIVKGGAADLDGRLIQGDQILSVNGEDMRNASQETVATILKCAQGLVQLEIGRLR
Description: (§1) cDNAs encoding each of the MMSC1 PDZ domains (amino acid residues identified in Table 1), and any desired control proteins, were generated by PCR and subcloned as glutathione S-transferase (GST) fusions in pGEX vectors (Pharmacia). After sequencing to confirm expression construct integrity, the resulting clones were expressed in E. coli and the desired fusion proteins isolated with glutathione-agarose and recovered with glutathione elution. These fusion proteins or control proteins were then adsorbed to different wells of a 96-well ELISA plate and remaining sites blocked with BSA. Synthetic commercially synthesized peptides encoding the desired PDZ-binding domain (i.e., the 16 C-terminal amino acids of MMAC1, or the C-terminal peptide sequences of interacting proteins identified by the approach of Example 2, or the C-terminal peptide sequences identified by the approach of Example 3), or a control peptide, and biotinylated at the amino-terminus, were pre-bound to streptavidin-alkaline phosphatase in a 4:1 molar ratio. The biotinylated peptide streptavidin-alkaline phosphatase complexes were then blocked with free biotin. These pre-bound peptide streptavidin-alkaline phosphatase complexes were then incubated with the immobilized PDZ domains in wash buffer containing PBS, BSA and triton-X100. Unbound material was removed with repeated washes. Bound peptide/streptavidin-alkaline phosphatase complex was then quantitated by a colorimetric phosphatase assay read on a 96-well plate reader.
(§2) The following peptides were used in the initial study: […]

[2] = target: T2, MMSc1 PDZ 5 (Homo sapiens, UniProt Q8NI35); assay: Peptide binding ELISA assay (PDZ Binding Assay), MMSC1 PDZ domain 5; details: immobilized GST fusion of MMSc1 PDZ 5; biotinylated peptide pre-bound to streptavidin-alkaline phosphatase; colorimetric phosphatase assay
T2 construct: made in house; host or cells: E. coli
T2 sequence (Q8NI35 686-772 limits assumed): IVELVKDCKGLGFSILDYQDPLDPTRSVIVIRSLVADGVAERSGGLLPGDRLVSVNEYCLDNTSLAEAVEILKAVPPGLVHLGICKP
Description: as §1, §2

[3] = target: T3, MMSc1 PDZ 7 (Homo sapiens, UniProt Q8NI35); assay: Peptide binding ELISA assay (PDZ Binding Assay), MMSC1 PDZ domain 7; details: immobilized GST fusion of MMSc1 PDZ 7; biotinylated peptide pre-bound to streptavidin-alkaline phosphatase; colorimetric phosphatase assay
T3 construct: made in house; host or cells: E. coli
T3 sequence (Q8NI35 1239-1322 limits assumed): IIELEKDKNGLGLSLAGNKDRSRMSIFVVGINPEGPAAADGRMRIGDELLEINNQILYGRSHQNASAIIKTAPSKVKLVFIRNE
Description: as §1, §2

[4] = target: T4, MMSc1 PDZ 8 (Homo sapiens, UniProt Q8NI35); assay: Peptide binding ELISA assay (PDZ Binding Assay), MMSC1 PDZ domain 8; details: immobilized GST fusion of MMSc1 PDZ 8; biotinylated peptide pre-bound to streptavidin-alkaline phosphatase; colorimetric phosphatase assay
T4 construct: made in house; host or cells: E. coli
T4 sequence (Q8NI35 1437-1520 limits assumed): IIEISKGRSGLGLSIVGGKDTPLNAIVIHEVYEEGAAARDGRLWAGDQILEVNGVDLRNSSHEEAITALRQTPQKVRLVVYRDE
Description: as §1, §2

[5] = target: T5, MMSc1 PDZ 6 (Homo sapiens, UniProt Q8NI35); assay: Peptide binding ELISA assay (PDZ Binding Assay), MMSC1 PDZ domain 6; details: immobilized GST fusion of MMSc1 PDZ 6; biotinylated peptide pre-bound to streptavidin-alkaline phosphatase; colorimetric phosphatase assay
T5 construct: made in house; host or cells: E. coli
T5 sequence (Q8NI35 1068-1160 limits assumed): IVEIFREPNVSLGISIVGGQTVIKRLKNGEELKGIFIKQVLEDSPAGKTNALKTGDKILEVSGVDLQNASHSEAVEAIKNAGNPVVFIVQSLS
Description: as §1, §2

[6] = target: T6, MMSc1 PDZ 3 (Homo sapiens, UniProt Q8NI35); assay: Peptide binding ELISA assay (PDZ Binding Assay), MMSC1 PDZ domain 3; details: immobilized GST fusion of MMSc1 PDZ 3; biotinylated peptide pre-bound to streptavidin-alkaline phosphatase; colorimetric phosphatase assay
T6 construct: made in house; host or cells: E. coli
T6 sequence (Q8NI35 365-453 limits assumed): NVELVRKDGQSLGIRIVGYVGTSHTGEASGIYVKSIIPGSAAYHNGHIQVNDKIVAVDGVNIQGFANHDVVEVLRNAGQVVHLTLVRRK
Description: as §1, §2

Row | Substance | A405 [1] | A405 [2] | A405 [3] | A405 [4] | A405 [5] | A405 [6]
1 | Biotin-SGDDGDDPFLQYEFYV-OH [AF6] | 2.41 | 0.02 | 1.05 | 0.29 | 1.46 | 2.24
2 | Biotin-ENEPFDEDQHTQITKV-OH [MMAC] | 0.10 | 0.00 | 1.25 | 0.30 | 0.23 | 0.01
3 | Biotin-SGSGILAPPVPPRNTR-OH [SH3] | 0.02 | 0.00 | 0.01 | 0.00 | 0.00 | 0.01
